Measured values: PubChem BioAssay (NCI)
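The compound was tested at five concentrations on cells cultured in 96-well plates, with a 48-hour exposure period. GI50: concentration for 50% inhibition of growth. At the TGI there is no net growth.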

Key:
Experiment in all cases: DTP human tumour cell line panel, 48 h
[1] = tested on: U251 CNS
[2] = tested on: NCI-H23 lung
[3] = tested on: SF-295 CNS
[4] = tested on: UO-31 renal
[5] = tested on: NCI-H226 lung
[6] = tested on: NCI-H460 lung
[7] = tested on: TK-10 renal
[8] = tested on: HL-60(TB) leukemia

Row | SMILES | GI50 [1] [µM] | TGI [1] [µM] | GI50 [2] [µM] | TGI [2] [µM] | GI50 [3] [µM] | TGI [3] [µM] | GI50 [4] [µM] | TGI [4] [µM] | GI50 [5] [µM] | TGI [5] [µM] | GI50 [6] [µM] | TGI [6] [µM] | GI50 [7] [µM] | TGI [7] [µM] | GI50 [8] [µM] | TGI [8] [µM]
1 | COc1c2ccccc2c(O)c2c(=O)c(C(=O)O)cn(C)c12 | > 100 | > 100 | > 100 | > 100 | 28.8 | > 100 | > 100 | > 100 | 17.4 | > 100 | > 100 | > 100 | – | – | – | –
2 | Cc1ccc(-c2ccc(Nc3c4ccccc4nc4ccccc34)cc2)cn1 | – | – | – | 88.7 | – | 11.9 | – | 13.2 | – | – | – | 5.3 | – | – | – | –
3 | CCOC(=O)/C=C1\SC(=Nc2ccc(C#N)cc2)N(CCN2C(=O)/C(=C/C(=O)OCC)SC2=Nc2ccc(C#N)cc2)C1=O | 0.554 | 1.94 | 3.52 | 18.1 | 5.59 | 25.6 | 2 | 11.3 | 3.53 | 14.3 | 1.81 | 7.35 | 14.8 | 36.6 | 2.66 | 25.6
4 | O=C(Oc1ccc([N+](=O)[O-])cc1)N1CCN(Cc2cccc(Oc3ccccc3)c2)CC1 | > 100 | > 100 | > 71.9 | > 100 | 62.9 | > 100 | 8.17 | > 100 | > 100 | > 100 | 99.3 | > 100 | > 75.9 | > 100 | 24.2 | > 100
5 | CC(C)(C)OC(=O)NCCCCCCCCn1c2c(c3ccccc3c1=O)C(=O)c1ccccc1-2 | 16.7 | > 50 | 20.4 | > 50 | 11.1 | > 41.6 | 34 | > 50 | 22.3 | > 50 | > 50 | > 50 | 11.7 | 30.7 | > 50 | > 50
6 | FC(F)(F)c1ccc(C=NC23CC4CC(CC(C4)C2)C3)cc1 | – | > 100 | – | > 100 | – | > 100 | – | > 100 | – | > 100 | – | > 100 | – | > 100 | – | > 100
7 | COc1ncc(-c2nc3c(n2C(C)C)[C@H](c2ccc(Cl)cc2)N(c2cc(Cl)cn(C)c2=O)C3=O)c(OC)n1 | 40.5 | > 100 | > 100 | > 100 | 36.8 | > 100 | 5.83 | 88.8 | 15.1 | 80.4 | 22.8 | > 100 | 36.8 | > 100 | 31.2 | 99.7
8 | COc1cc(NN=C(c2ccc(O)cc2)c2ccc(O)cc2)c([N+](=O)[O-])cc1[N+](=O)[O-] | 7.79 | 20.6 | 13.5 | 34.5 | 1.73 | 16.5 | 10.4 | 23.9 | 23.6 | 71.6 | 3.76 | 21.2 | 4.69 | 19.9 | 22 | > 100
9 | COc1cc(/C=C/C(=O)c2cc(F)c(Cl)cc2Cl)cc(OC)c1OC | 29.3 | > 100 | 34.2 | > 100 | 44.4 | > 100 | 16.3 | 32.8 | 79.9 | > 100 | 48.3 | > 100 | 31 | > 100 | 16.6 | 71.9
10 | COc1cc2c3c(n(CCCN)c(=O)c2cc1OC)-c1ccc(F)cc1C3=O | 0.746 | 6.45 | 1.65 | 9.39 | 0.564 | 14.9 | 8.15 | 23.7 | 7.87 | 27.2 | 0.369 | 1.78 | 14.7 | 30.4 | 8.15 | 24.9
11 | Nc1nc2ccc([C@@H]3Nc4ccc5[nH]ncc5c4[C@H]4[C@H]5CCC(C5)[C@H]43)cc2s1 | 1.18 | 11.5 | 1.58 | 3.72 | 0.648 | 5.95 | 1.78 | 12.2 | 1.91 | 5.54 | 0.81 | 2.32 | 2.73 | 8.98 | 0.345 | 1.37
12 | Nc1nc2c(c3ncccc13)C(c1cccc(Cl)c1)Cc1ncccc1-2 (stereo not drawn) | 2.17 | 15.4 | 4.93 | 59.4 | 2.21 | 11 | 3.98 | 34.9 | 19.6 | 43.2 | 3.03 | 22.6 | 8.11 | 65.7 | 1.21 | 10.3
13 | CC[N+](CC)=c1ccc2nc3c(cc(NCc4ccccc4)c4ccccc43)oc-2c1 | 0.196 | 0.962 | 0.148 | 0.352 | 0.2 | 0.51 | 0.089 | 1.15 | 0.358 | 1.83 | 0.201 | 0.435 | 0.671 | 2.29 | 0.209 | 1.11
14 | O=C(Nc1cnn2ccc(N3CCC[C@@H]3c3cc(F)ccc3F)nc12)N1CC[C@H](O)C1 | > 100 | > 100 | > 100 | > 100 | > 100 | > 100 | > 100 | > 100 | > 100 | > 100 | > 100 | > 100 | > 100 | > 100 | > 100 | > 100
15 | COc1ccc2cc(C(=O)/C=C/c3cccc(Cl)c3Cl)ccc2c1 | 6.19 | 65.3 | 6.42 | 29.4 | 5.94 | > 100 | 10.2 | > 53.2 | – | – | 10.1 | > 100 | 18.6 | > 86.3 | 24.2 | > 100
16 | Cc1ccc(S(=O)(=O)Oc2ccc3c4c(c(=O)oc3c2)CCCCC4)cc1 | > 100 | > 100 | 8 | > 100 | > 100 | > 100 | > 100 | > 100 | 7.5 | > 100 | – | – | > 100 | > 100 | – | –
17 | NC1=NC(c2ccccc2)N=C(Nc2ccccc2)N1 (stereo not drawn) | 42.1 | > 100 | > 100 | > 100 | > 100 | > 100 | – | – | > 100 | > 100 | > 100 | > 100 | > 100 | > 100 | > 100 | > 100
18 | O=S(=O)(NC(=S)Nc1ccccc1)c1ccc(N2N=C3c4ccccc4CC3C2c2cccs2)cc1 (stereo not drawn) | 26.2 | 76.7 | 17.6 | 39.5 | 18.9 | 41.8 | 51.2 | > 100 | 27.2 | 55.4 | 24.6 | > 100 | 12.2 | 39.7 | – | –
19 | C=C(CNCCc1ccc(O)cc1)[C@@H]1CC[C@]2(CO)CC[C@]3(C)[C@H](CC[C@@H]4[C@@]5(C)CCC(=O)C(C)(C)[C@@H]5CC[C@]43C)[C@@H]12 | 1.56 | 2.92 | 1.69 | 3.26 | 1.74 | 3.22 | 1.3 | 2.58 | 1.62 | 3.64 | 1.66 | 3.28 | 1.73 | 3.19 | – | –
20 | O=C(O)c1cc2ccccc2c(N=Nc2c([N+](=O)[O-])cc([N+](=O)[O-])cc2S(=O)(=O)O)c1O | – | > 100 | – | > 100 | – | > 100 | – | > 100 | – | > 100 | – | – | – | > 100 | – | –
21 | N#C/C(=C\c1ccc(Br)cc1)n1nnc2cccc(F)c21 | 1.55 | 3.06 | 1.43 | 3.07 | 1.92 | 3.88 | 1.41 | 2.72 | 1.57 | 3.45 | 1.97 | 4.21 | 1.91 | 3.55 | – | –
22 | O=C1c2ccccc2S(=O)(=O)N1CSC(=S)N1CCCC1 | > 100 | > 100 | > 78.6 | > 100 | > 100 | > 100 | > 100 | > 100 | > 100 | > 100 | 45.4 | > 100 | > 100 | > 100 | – | –
23 | CCCCn1c2c(c3ccccc3c1=O)C(=O)c1ccccc1-2 | – | > 100 | – | > 100 | – | > 100 | – | > 100 | – | > 100 | – | – | – | > 100 | – | > 100
24 | O=C1C(Cl)=C(Nc2ccc3cn[nH]c3c2)C(=O)c2ccccc21 | 1.31 | 2.58 | 0.413 | 1.81 | 1.67 | 4.14 | 1.25 | 2.51 | – | – | 1.7 | 4.14 | 3.79 | 8.06 | 1.7 | 4.45
